# PubChem BioAssay (NCI)
#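 48-hour exposure; five concentrations; linearly interpolated endpoints. At the GI50, growth is halved. TGI is the concentration that stops growth completely.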
# Key:
# Test in all cases: growth of human tumour cells (NCI), 48 h
# 786-0 renal = system: 786-0 renal
# A498 renal = system: A498 renal
# A549 NSCLC = system: A549 NSCLC
# ACHN renal = system: ACHN renal
# BT-549 breast = system: BT-549 breast
# CAKI-1 renal = system: CAKI-1 renal
# COLO 205 colon = system: COLO 205 colon
# DU-145 prostate = system: DU-145 prostate
# EKVX NSCLC = system: EKVX NSCLC
# HCC-2998 colon = system: HCC-2998 colon
# HCT-116 colon = system: HCT-116 colon
# HCT-15 colon = system: HCT-15 colon
# HL-60(TB) leukemia = system: HL-60(TB) leukemia
# HOP-62 NSCLC = system: HOP-62 NSCLC
# HOP-92 NSCLC = system: HOP-92 NSCLC
# HS 578T breast = system: HS 578T breast
# HT29 colon = system: HT29 colon
# IGROV1 ovarian = system: IGROV1 ovarian
# K-562 leukemia = system: K-562 leukemia
# KM12 colon = system: KM12 colon
# LOX IMVI melanoma = system: LOX IMVI melanoma
# M14 melanoma = system: M14 melanoma
# MCF7 breast = system: MCF7 breast
# MDA-MB-231 breast = system: MDA-MB-231 breast
# MDA-MB-435 = system: MDA-MB-435
# MOLT-4 leukemia = system: MOLT-4 leukemia
# NCI-H226 lung = system: NCI-H226 lung
# NCI-H23 lung = system: NCI-H23 lung
# NCI-H460 lung = system: NCI-H460 lung
# NCI-H522 lung = system: NCI-H522 lung
# NCI/ADR-RES ovarian = system: NCI/ADR-RES ovarian
# OVCAR-3 ovarian = system: OVCAR-3 ovarian
# OVCAR-4 ovarian = system: OVCAR-4 ovarian
# OVCAR-5 ovarian = system: OVCAR-5 ovarian
# OVCAR-8 ovarian = system: OVCAR-8 ovarian
# PC-3 prostate = system: PC-3 prostate
# RPMI-8226 leukemia = system: RPMI-8226 leukemia
# RXF 393 renal = system: RXF 393 renal
# SF-268 CNS = system: SF-268 CNS
# SF-295 CNS = system: SF-295 CNS
# SF-539 CNS = system: SF-539 CNS
# SK-MEL-2 melanoma = system: SK-MEL-2 melanoma
# SK-MEL-28 melanoma = system: SK-MEL-28 melanoma
# SK-MEL-5 melanoma = system: SK-MEL-5 melanoma
# SK-OV-3 ovarian = system: SK-OV-3 ovarian
# SN12C renal = system: SN12C renal
# SNB-19 CNS = system: SNB-19 CNS
# SNB-75 CNS = system: SNB-75 CNS
# SR leukemia = system: SR leukemia
# SW-620 colon = system: SW-620 colon
# T-47D breast = system: T-47D breast
# TK-10 renal = system: TK-10 renal
# U251 CNS = system: U251 CNS
# UACC-257 melanoma = system: UACC-257 melanoma
# UACC-62 melanoma = system: UACC-62 melanoma
# UO-31 renal = system: UO-31 renal
structure (smiles),measurement,setting,value
COC(=O)[C@]1(C)CCC[C@@]2(C)C3=C(CC[C@H]12)C[C@@H](CC(OC(C)=O)OC(C)=O)[C@@H](C)C3,GI50,786-0 renal,8.97 µM
same,TGI,786-0 renal,17.2 µM
same,GI50,A498 renal,11.5 µM
same,TGI,A498 renal,19.9 µM
same,GI50,A549 NSCLC,15.4 µM
same,TGI,A549 NSCLC,> 43.6 µM
same,GI50,ACHN renal,13.9 µM
same,TGI,ACHN renal,> 28.2 µM
same,GI50,BT-549 breast,12.8 µM
same,TGI,BT-549 breast,25.2 µM
same,GI50,CAKI-1 renal,8.73 µM
same,TGI,CAKI-1 renal,18.2 µM
same,GI50,COLO 205 colon,11 µM
same,TGI,COLO 205 colon,27.4 µM
same,GI50,DU-145 prostate,10.4 µM
same,TGI,DU-145 prostate,23.3 µM
same,GI50,EKVX NSCLC,11.7 µM
same,TGI,EKVX NSCLC,23.9 µM
same,GI50,HCC-2998 colon,9.32 µM
same,TGI,HCC-2998 colon,16.3 µM
same,GI50,HCT-116 colon,8.21 µM
same,TGI,HCT-116 colon,18.9 µM
same,GI50,HCT-15 colon,15.4 µM
same,TGI,HCT-15 colon,> 40.7 µM
same,GI50,HL-60(TB) leukemia,14.4 µM
same,TGI,HL-60(TB) leukemia,> 50 µM
same,GI50,HOP-62 NSCLC,11.3 µM
same,TGI,HOP-62 NSCLC,23.4 µM
same,GI50,HOP-92 NSCLC,9.95 µM
same,TGI,HOP-92 NSCLC,19.9 µM
same,GI50,HS 578T breast,10.9 µM
same,TGI,HS 578T breast,23 µM
same,GI50,HT29 colon,18 µM
same,TGI,HT29 colon,> 50 µM
same,GI50,IGROV1 ovarian,14.5 µM
same,TGI,IGROV1 ovarian,> 37.1 µM
same,GI50,K-562 leukemia,14.7 µM
same,TGI,K-562 leukemia,> 50 µM
same,GI50,KM12 colon,10.1 µM
same,TGI,KM12 colon,22.6 µM
same,GI50,LOX IMVI melanoma,> 50 µM
same,TGI,LOX IMVI melanoma,> 50 µM
same,GI50,M14 melanoma,11.1 µM
same,TGI,M14 melanoma,20 µM
same,GI50,MCF7 breast,7.99 µM
same,TGI,MCF7 breast,18.5 µM
same,GI50,MDA-MB-231 breast,8.81 µM
same,TGI,MDA-MB-231 breast,19.2 µM
same,GI50,MDA-MB-435,9.96 µM
same,TGI,MDA-MB-435,20.5 µM
same,GI50,MOLT-4 leukemia,18.5 µM
same,TGI,MOLT-4 leukemia,> 50 µM
same,GI50,NCI-H226 lung,11.2 µM
same,TGI,NCI-H226 lung,31.1 µM
same,GI50,NCI-H23 lung,9.15 µM
same,TGI,NCI-H23 lung,16.7 µM
same,GI50,NCI-H460 lung,9.2 µM
same,TGI,NCI-H460 lung,25.3 µM
same,GI50,NCI-H522 lung,> 28 µM
same,TGI,NCI-H522 lung,> 50 µM
same,GI50,NCI/ADR-RES ovarian,8.95 µM
same,TGI,NCI/ADR-RES ovarian,16.3 µM
same,GI50,OVCAR-3 ovarian,10.7 µM
same,TGI,OVCAR-3 ovarian,27.9 µM
same,GI50,OVCAR-4 ovarian,14.4 µM
same,TGI,OVCAR-4 ovarian,47.4 µM
same,GI50,OVCAR-5 ovarian,9.89 µM
same,TGI,OVCAR-5 ovarian,18.4 µM
same,GI50,OVCAR-8 ovarian,10.2 µM
same,TGI,OVCAR-8 ovarian,20.5 µM
same,GI50,PC-3 prostate,11.4 µM
same,TGI,PC-3 prostate,> 29 µM
same,GI50,RPMI-8226 leukemia,5.23 µM
same,TGI,RPMI-8226 leukemia,27.7 µM
same,GI50,RXF 393 renal,7.03 µM
same,TGI,RXF 393 renal,16.1 µM
same,GI50,SF-268 CNS,7.85 µM
same,TGI,SF-268 CNS,16.9 µM
same,GI50,SF-295 CNS,11 µM
same,TGI,SF-295 CNS,26.7 µM
same,GI50,SF-539 CNS,10.7 µM
same,TGI,SF-539 CNS,20.3 µM
same,GI50,SK-MEL-2 melanoma,15.9 µM
same,TGI,SK-MEL-2 melanoma,> 37.4 µM
same,GI50,SK-MEL-28 melanoma,11.5 µM
same,TGI,SK-MEL-28 melanoma,24.5 µM
same,GI50,SK-MEL-5 melanoma,8.4 µM
same,TGI,SK-MEL-5 melanoma,15.6 µM
same,GI50,SK-OV-3 ovarian,20.7 µM
same,TGI,SK-OV-3 ovarian,> 50 µM
same,GI50,SN12C renal,9.42 µM
same,TGI,SN12C renal,20.6 µM
same,GI50,SNB-19 CNS,13.5 µM
same,TGI,SNB-19 CNS,32.1 µM
same,GI50,SNB-75 CNS,14.1 µM
same,TGI,SNB-75 CNS,30.5 µM
same,GI50,SR leukemia,11.2 µM
same,TGI,SR leukemia,> 50 µM
same,GI50,SW-620 colon,11 µM
same,TGI,SW-620 colon,22.7 µM
same,GI50,T-47D breast,4.17 µM
same,TGI,T-47D breast,13.7 µM
same,GI50,TK-10 renal,13.5 µM
same,TGI,TK-10 renal,27.2 µM
same,GI50,U251 CNS,13.4 µM
same,TGI,U251 CNS,> 28.9 µM
same,GI50,UACC-257 melanoma,10.1 µM
same,TGI,UACC-257 melanoma,19.7 µM
same,GI50,UACC-62 melanoma,8.82 µM
same,TGI,UACC-62 melanoma,19.4 µM
same,GI50,UO-31 renal,10.6 µM
same,TGI,UO-31 renal,24.8 µM
